The source made the active and inactive calls. How the calls were made is not given here.

The subject of this test is Staphylococcus aureus. The experiment in a line: Antibacterial activity against tarO deficient Staphylococcus aureus RN4220 assessed as growth inhibition at 100 uM after 12 hrs by optical density plate reader method. The format is functional.
Take `COc1ccc(Nc2nc3c(S(=O)(=O)c4ccccc4)nnn3c3ccc(Cl)cc23)cc1OC`: the outcome was inactive.
`COCCCNc1nc2c(S(=O)(=O)c3ccc(C)c(C)c3)nnn2c2ccc(Cl)cc12`: the result was inactive.
With `COc1ccccc1CNc1nc2c(S(=O)(=O)c3ccc(C)c(C)c3)nnn2c2ccc(Cl)cc12`, the result was inactive.
Consider `CCOC(=O)C1CCCN(c2nc3c(S(=O)(=O)c4ccc(CC)cc4)nnn3c3ccc(Cl)cc23)C1` (configuration not stated), for which the outcome was inactive.
Turning to `CC(=O)NCCNc1nc2c(S(=O)(=O)c3ccc(C)c(C)c3)nnn2c2ccc(Cl)cc12`, the result was inactive.
As to `CCOC(=O)C1CCCN(c2nc3c(S(=O)(=O)c4ccc(C)c(C)c4)nnn3c3ccc(Cl)cc23)C1` (configuration not stated), the result was inactive.
As for `c1ccc(-c2nnn3c2nc(N2CCOCC2)c2ccccc23)cc1`, the result was inactive.
In the case of `CCc1ccc(S(=O)(=O)c2nnn3c2nc(NCc2ccccc2OC)c2cc(Cl)ccc23)cc1`, the result was inactive.
Consider `CCc1ccc(S(=O)(=O)c2nnn3c2nc(N(C)Cc2ccccc2)c2cc(Cl)ccc23)cc1`, for which the result was inactive.
As for `O=S(=O)(c1ccccc1)c1nnn2c1nc(N1CCN(c3ccccc3)CC1)c1cc(Cl)ccc12`, the outcome was inactive.
For `CCc1ccc(S(=O)(=O)c2nnn3c2nc(N2CCC(C(N)=O)CC2)c2cc(Cl)ccc23)cc1`, the outcome was inactive.
Consider `O=C(Nc1ccc(Nc2nc3c(S(=O)(=O)c4ccc(Br)cc4)nnn3c3ccccc23)cc1)c1ccco1`, for which the outcome was inactive.
As for `COCCCNc1nc2c(S(=O)(=O)c3ccccc3)nnn2c2ccc(Cl)cc12`, the outcome was inactive.
As to `CCN(CC)c1nc2c(S(=O)(=O)c3ccccc3)nnn2c2ccccc12`, the outcome was inactive.
The result for `Cc1ccc(C)c(S(=O)(=O)c2nnn3c2nc(NCCC(C)C)c2ccccc23)c1` reads “inactive”; that for `Cc1ccc(S(=O)(=O)c2nnn3c2nc(N2CCC(C)CC2)c2cc(Cl)ccc23)cc1C`, “inactive”.
With `CCc1ccc(S(=O)(=O)c2nnn3c2nc(NC(C)C)c2cc(Cl)ccc23)cc1`, the outcome was inactive.
For `NC(=O)C1CCN(c2nc3c(S(=O)(=O)c4ccc(Br)cc4)nnn3c3ccccc23)CC1` the value was “inactive”.
As to `CCc1ccc(S(=O)(=O)c2nnn3c2nc(Nc2ccc(F)cc2)c2cc(Cl)ccc23)cc1`, the result was inactive.
For `CC(=O)c1ccc(N2CCN(c3nc4c(S(=O)(=O)c5ccc(C)c(C)c5)nnn4c4ccc(Cl)cc34)CC2)cc1` the value was “inactive”.
For `CCOC(=O)C1CCCN(c2nc3c(S(=O)(=O)c4ccccc4)nnn3c3ccccc23)C1` (configuration not stated) the value was “inactive”; for `COc1ccc(Nc2nc3c(S(=O)(=O)c4ccccc4)nnn3c3ccc(Cl)cc23)c(OC)c1`, “inactive”; for `O=S(=O)(c1ccccc1)c1nnn2c1nc(Cl)c1ccccc12`, “inactive”.
In the case of `CC(=O)c1ccc(Nc2nc3c(S(=O)(=O)c4ccccc4)nnn3c3ccc(Cl)cc23)cc1`, the result was inactive.
With `CC1CCN(c2nc3c(S(=O)(=O)c4ccccc4)nnn3c3ccc(Cl)cc23)CC1`, the outcome was inactive.
As to `Cc1ccc(S(=O)(=O)c2nnn3c2nc(N2CCCC(C)C2)c2cc(Cl)ccc23)cc1C` (configuration not stated), the outcome was inactive.
Take `Cc1ccc(S(=O)(=O)c2nnn3c2nc(N2CCCC2)c2ccccc23)cc1`: the outcome was inactive.
`CCOc1ccc(Nc2nc3c(S(=O)(=O)c4ccc(CC)cc4)nnn3c3ccc(Cl)cc23)cc1`: the result was inactive.
With `CCc1ccc(S(=O)(=O)c2nnn3c2nc(NCc2cccc(OC)c2)c2cc(Cl)ccc23)cc1`, the result was inactive.
On to `Cc1ccc(Nc2nc3c(S(=O)(=O)c4ccccc4)nnn3c3ccc(Cl)cc23)c(C)c1`, for which the result was inactive.
Consider `COCCNc1nc2c(S(=O)(=O)c3ccccc3)nnn2c2ccc(Cl)cc12`, for which the result was inactive.
Turning to `Cc1ccc(S(=O)(=O)c2nnn3c2nc(NCCC(C)C)c2cc(Cl)ccc23)cc1C`, the result was inactive.
On to `COc1ccccc1CNc1nc2c(S(=O)(=O)c3ccccc3)nnn2c2ccc(Cl)cc12`, for which the result was inactive.
Take `Cc1ccc(S(=O)(=O)c2nnn3c2nc(N2CCN(c4ccc(F)cc4)CC2)c2cc(Cl)ccc23)cc1C`: the outcome was inactive.
Turning to `CCOCCCNc1nc2c(S(=O)(=O)c3ccc(CC)cc3)nnn2c2ccc(Cl)cc12`, the result was inactive.
For `CCOC(=O)C1CCN(c2nc3c(S(=O)(=O)c4ccccc4)nnn3c3ccc(Cl)cc23)CC1`, the outcome was inactive.
`CCOC(=O)C1CCN(c2nc3c(S(=O)(=O)c4ccc(C)c(C)c4)nnn3c3ccc(Cl)cc23)CC1`: the outcome was inactive.
Regarding `Nc1nc2c(C(=O)N3CCOCC3)nnn2c2ccccc12`, the outcome was inactive.
The result for `COc1cc(Nc2nc3c(S(=O)(=O)c4ccccc4)nnn3c3ccc(Cl)cc23)cc(OC)c1` reads “inactive”; that for `COc1ccccc1N1CCN(c2nc3c(S(=O)(=O)c4ccc(C)c(C)c4)nnn3c3ccc(Cl)cc23)CC1`, “inactive”; that for `O=S(=O)(c1ccc(Cl)cc1)c1nnn2c1nc(Cl)c1ccccc12`, “inactive”.
For the molecule `Cc1ccc(N2CCN(c3nc4c(S(=O)(=O)c5ccc(C)c(C)c5)nnn4c4ccccc34)CC2)c(C)c1`, the result was inactive.
Regarding `COc1ccccc1Nc1nc2c(S(=O)(=O)c3c(C)cc(C)cc3C)nnn2c2ccccc12`, the outcome was inactive.
The result for `COc1ccc(Nc2nc3c(S(=O)(=O)c4ccccc4)nnn3c3ccc(Cl)cc23)cc1` reads “inactive”.
As to `CCN(Cc1ccccc1)c1nc2c(S(=O)(=O)c3ccc(C)c(C)c3)nnn2c2ccc(Cl)cc12`, the outcome was inactive.
For `Cc1ccc(S(=O)(=O)c2nnn3c2nc(N2CCN(c4cccc(C)c4C)CC2)c2ccccc23)cc1C`, the outcome was inactive.
As for `CCc1ccc(S(=O)(=O)c2nnn3c2nc(N2CCCC(C)C2)c2cc(Cl)ccc23)cc1` (configuration not stated), the result was inactive.
On to `Cc1ccc(C)c(S(=O)(=O)c2nnn3c2nc(Nc2ccc(C)c(C)c2)c2ccccc23)c1`, for which the result was inactive.
On to `CCc1ccc(S(=O)(=O)c2nnn3c2nc(N2CCC(C)CC2)c2cc(Cl)ccc23)cc1`, for which the outcome was inactive.
Consider `CC(=O)c1ccc(Nc2nc3c(S(=O)(=O)c4ccc(C)c(C)c4)nnn3c3ccccc23)cc1`, for which the result was inactive.
For the molecule `Cc1ccc(CNc2nc3c(S(=O)(=O)c4ccc(C)c(C)c4)nnn3c3ccc(Cl)cc23)cc1`, the outcome was inactive.
With `CCc1ccc(S(=O)(=O)c2nnn3c2nc(N(CC)Cc2ccccc2)c2cc(Cl)ccc23)cc1`, the outcome was inactive.
`CCN(Cc1ccccc1)c1nc2c(S(=O)(=O)c3ccccc3)nnn2c2ccc(Cl)cc12`: the result was inactive.
On to `CCc1ccc(S(=O)(=O)c2nnn3c2nc(NCCNC(C)=O)c2cc(Cl)ccc23)cc1`, for which the outcome was inactive.
The result for `CCOC(=O)c1nnn2c1nc(N(CC)CC)c1ccccc12` reads “inactive”; that for `CC(=O)c1ccccc1N1CCN(c2nc3c(S(=O)(=O)c4ccccc4)nnn3c3ccc(Cl)cc23)CC1`, “inactive”; that for `COc1ccccc1N1CCN(c2nc3c(S(=O)(=O)c4ccccc4)nnn3c3ccc(Cl)cc23)CC1`, “inactive”.
For `Cc1ccc(S(=O)(=O)c2nnn3c2nc(N2CCN(c4ccccc4F)CC2)c2cc(Cl)ccc23)cc1C` the value was “inactive”; for `Cc1ccc(S(=O)(=O)c2nnn3c2nc(NC(C)C)c2cc(Cl)ccc23)cc1C`, “inactive”.
As to `Cc1ccc(S(=O)(=O)c2nnn3c2nc(N2CCN(c4ccccc4F)CC2)c2ccccc23)cc1C`, the result was inactive.
For the molecule `CN(Cc1ccccc1)c1nc2c(S(=O)(=O)c3ccccc3)nnn2c2ccccc12`, the result was inactive.
`COc1ccc(CNc2nc3c(S(=O)(=O)c4ccccc4)nnn3c3ccc(Cl)cc23)cc1`: the outcome was inactive.
As to `CC(=O)NCCNc1nc2c(-c3ccccc3)nnn2c2ccccc12`, the result was inactive.
As to `O=S(=O)(c1ccccc1)c1nnn2c1nc(Nc1ccccc1)c1cc(Cl)ccc12`, the result was inactive.
As for `O=S(=O)(c1ccccc1)c1nnn2c1nc(NCc1ccccc1)c1cc(Cl)ccc12`, the result was inactive.
Regarding `CCc1ccc(S(=O)(=O)c2nnn3c2nc(Nc2cc(OC)cc(OC)c2)c2cc(Cl)ccc23)cc1`, the result was inactive.
The result for `Cc1ccc(CNc2nc3c(S(=O)(=O)c4cc(C)ccc4C)nnn3c3ccccc23)cc1` reads “inactive”; that for `O=C1CCCN1CCCNc1nc2c(S(=O)(=O)c3ccc(Br)cc3)nnn2c2ccccc12`, “inactive”; that for `O=S(=O)(c1ccccc1)c1nnn2c1nc(N1CCCC1)c1cc(Cl)ccc12`, “inactive”.
For `CCc1ccc(S(=O)(=O)c2nnn3c2nc(NCCC(C)C)c2cc(Cl)ccc23)cc1`, the outcome was inactive.
For `Cc1ccc(C)c(N2CCN(c3nc4c(S(=O)(=O)c5ccccc5)nnn4c4ccc(Cl)cc34)CC2)c1` the value was “inactive”; for `CCc1ccc(S(=O)(=O)c2nnn3c2nc(N2CCN(c4ccccc4)CC2)c2cc(Cl)ccc23)cc1`, “inactive”; for `Cc1ccc(S(=O)(=O)c2nnn3c2nc(NCC2CCCO2)c2ccccc23)cc1` (configuration not stated), “inactive”.
The result for `CCOC(=O)C1CCN(c2nc3c(S(=O)(=O)c4ccc(CC)cc4)nnn3c3ccc(Cl)cc23)CC1` reads “inactive”; that for `Cc1ccc(S(=O)(=O)c2nnn3c2nc(N2CCC(C(N)=O)CC2)c2cc(Cl)ccc23)cc1C`, “inactive”; that for `CCc1ccc(S(=O)(=O)c2nnn3c2nc(NCc2ccccc2)c2cc(Cl)ccc23)cc1`, “inactive”.
Consider `CSc1cccc(Nc2nc3c(S(=O)(=O)c4ccccc4)nnn3c3ccc(Cl)cc23)c1`, for which the outcome was inactive.

Values taken from ChEMBL document CHEMBL1154960, “Development of improved inhibitors of wall teichoic acid biosynthesis with potent activity against Staphylococcus aureus” (Bioorg Med Chem Lett, 2010).
